Assay results published in patent publication US20250054624A1, “METHODS AND SYSTEMS FOR DIGITAL PATHOLOGY ASSESSMENT OF CANCER VIA DEEP LEARNING” (Artera Inc., priority 2023, published 2025).
Entries after “also recorded” stand apart in the source; their conditions may differ. Read-outs that look alike come from different tables or passages of the source.

Columns and labels:
[1] = test system: nonmetastatic castration-resistant prostate cancer (nmCRPC); conditions: cited from earlier work
[2] = test system: nonmetastatic castration-resistant prostate cancer (nmCRPC); assay: SPARTAN phase III randomized placebo-controlled trial; outcomes by treatment group and MMAI risk group; format: in vivo, human; conditions: for PFS2 hazard ratio (HR) for apalutamide compared to placebo: second progression-free survival; for MFS HR, variable Treatment, Cox regression multivariable analysis / OS HR, variable Treatment, Cox regression multivariable analysis / PFS2 HR, variable Treatment, Cox regression multivariable analysis: all patients
From the text: The addition of apalutamide (APA) to androgen deprivation therapy (ADT) improved metastasis-free survival (MFS) and second progression-free survival (PFS2) among patients with nonmetastatic castration-resistant prostate cancer (nmCRPC). A digital histopathology-based multimodal AI (MMAI) algorithm as described herein was trained to evaluate whether MMAI could define risk of progression among nmCRPC patients treated with APA or placebo in the SPARTAN trial.
Patients enrolled in the SPARTAN trial with available H&E-stained biopsy slides from their primary diagnosis were included. H&E slides were digitized. Baseline clinical parameters to generate MMAI scores were Gleason score, age, T stage, and PSA. MMAI scores for distant metastasis (DM) were generated, ranging from 0 to 1. Patients were further categorized into MMAI non-high-risk and high-risk groups using a score cutoff. Kaplan Meier estimates were calculated for PFS2 and MFS; comparisons were performed using log-rank test and Cox proportional-hazards regression for treatment arms and MMAI risk groups. […] was used to evaluate the interaction between treatment arms and risk groups.
SPARTAN (NCT01946204) was an international, multicenter, randomized, double-blinded, placebo-controlled, phase III clinical trial that evaluated the efficacy of apalutamide in improving MFS in men with nmCRPC. […] These patients were considered at high risk for the development of metastases, as indicated by a PSA doubling time of 10 months or less during continuous ADT.
Participants were randomly assigned 2:1 to receive ongoing ADT with either apalutamide (240 mg daily) or a matched placebo. A primary endpoint of the study was MFS, defined as the duration from randomization to the first detection of distant metastasis on conventional imaging (as determined on central review by independent radiologists blinded to patient identifiers and treatment) or death from any cause, whichever occurred first. Secondary endpoints included second progression-free survival (PFS2), defined as the time from randomization to progression on first subsequent therapy, and overall survival (OS), defined as the time from randomization to death.
MMAI scores were computed for each subject within the analysis cohort using whole slide images digitized at 20× resolution from H&E-stained prostate primary slides obtained at the time of diagnosis. These scores, ranging from 0 to 1, represent a continuum of increasing probabilities for clinical events such as DM and PCSM. Subjects' MMAI scores for risk of DM categorized patients into MMAI risk groups (low, intermediate and high) using predefined clinical thresholds established for patients with localized prostate cancer based upon clinician input. For the purpose of this analysis, patients were categorized as either MMAI high risk or MMAI non-high risk (MMAI score with >10% estimated 10-year DM rates defined high-risk), with the latter group combining the low and intermediate risk categories for comparison.
Summary statistics of baseline characteristics for the analysis cohort, treatment subgroups and the overall clinical trial cohort were reported to evaluate comparability. Kaplan-Meier estimates were calculated for MFS, PFS2, and OS for analysis by treatment group and MMAI risk groups. Comparisons were performed using log-rank test and Cox proportional hazards regression models for treatment arms, MMAI risk scores, and MMAI risk group. The reporting unit for continuous MMAI scores in the Cox models is standard deviation (SD), meaning that each 1-unit increase corresponds to 1 SD increase in MMAI score. The interaction between treatment arm and MMAI risk scores was evaluated using a Cox proportional hazards model. Treatment effects within each MMAI risk subgroup were also assessed to measure the relative treatment effect between arms. […]

[3] = overall SPARTAN study, in words
[4] = all patients of analysis cohort
[5] = model with MMAI risk group (high/non-high) and MMAI risk group:Treatment interaction
[6] = model with continuous MMAI risk score and MMAI risk score:Treatment interaction

SMILES: CNC(=O)c1ccc(N2C(=S)N(c3cnc(C#N)c(C(F)(F)F)c3)C(=O)C23CCC3)cc1F [apalutamide]
- Median metastasis-free survival (95% CI), month ([1]; Overall SPARTAN Trial, N = 806): 40.5 month
- Median overall survival (95% CI), month ([1]; Overall SPARTAN Trial, N = 806): 73.9 month
- metastasis-free survival (MFS), effect of adding apalutamide to ADT [1, 3]: significantly improved
- second progression-free survival (PFS2), effect of adding apalutamide to ADT [1, 3]: significantly improved
- time to symptomatic progression, effect of adding apalutamide to ADT [1, 3]: significantly improved
- overall survival (OS), effect of adding apalutamide to ADT compared to placebo ([1]; overall SPARTAN study, in words, median follow up of 52 months): significantly improved; also recorded: significant extension
- Median overall survival (95% CI), month ([2]; MMAI Biomarker Cohort, N = 311): 65.1 month
- MFS hazard ratio (HR) for apalutamide compared to placebo ([2]; MMAI high risk group, metastasis-free survival, with ongoing ADT): 0.19
- OS hazard ratio (HR) for apalutamide compared to placebo ([2]; MMAI high risk group, overall survival): 0.6
- PFS2 hazard ratio (HR) for apalutamide compared to placebo ([2]; MMAI high risk group): 0.47
- PFS2 hazard ratio (HR) for apalutamide compared to placebo ([2]; MMAI high risk group, listed as APA): 0.76
- MFS HR, variable Treatment, Cox regression univariate analysis [2, 4]: 0.28
- PFS2 HR, variable Treatment, Cox regression univariate analysis [2, 4]: 0.55
- OS HR, variable Treatment, Cox regression univariate analysis ([2]; all patients of analysis cohort, listed as Treatment): 0.7
- MFS HR, variable Treatment, Cox regression multivariable analysis [2, 5]: 0.61
- OS HR, variable Treatment, Cox regression multivariable analysis [2, 5]: 0.97
- PFS2 HR, variable Treatment, Cox regression multivariable analysis [2, 5]: 0.74
- MFS HR, variable Treatment, Cox regression multivariable analysis [2, 6]: 1.72
- OS HR, variable Treatment, Cox regression multivariable analysis [2, 6]: 1.98
- PFS2 HR, variable Treatment, Cox regression multivariable analysis [2, 6]: 2.28
